Our source for the IC50 and inhibition values is patent publication US6630500B2, “Selected fused pyrrolocarbazoles” (Cephalon, Inc., priority 2000, dated 2003).

One may read the IC50 as the point on the concentration scale where inhibition reaches its midpoint. Low values mean greater potency, high ones weaker potency.

What all share (format): biochemical
The target in experiment [1] is T1, MLK1 (Homo sapiens, UniProt P80192).
T1 construct: 1 μg/ml of baculoviral GST-MLK1KD; GST (N); made in house
T1 sequence (P80192 144-412 limits assumed, species assumed): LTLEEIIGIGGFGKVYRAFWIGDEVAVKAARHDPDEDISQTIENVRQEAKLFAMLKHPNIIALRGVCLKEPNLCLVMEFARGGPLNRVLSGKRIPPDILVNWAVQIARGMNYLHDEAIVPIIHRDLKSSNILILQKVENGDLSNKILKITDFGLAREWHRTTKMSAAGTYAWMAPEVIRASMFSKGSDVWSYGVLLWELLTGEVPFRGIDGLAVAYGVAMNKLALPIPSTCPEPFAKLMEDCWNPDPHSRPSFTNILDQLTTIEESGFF
Briefly: Inhibition of Mixed Lineage Kinase-1 (MLK1) activity. Conditions: 60 μM ATP; for IC50: values without % sign; for inhibition at 0.1 µM: 100 nM compound. The protocol:
The kinase activity of MLK1 was assessed using the Millipore Multiscreen TCA “in-plate” format as described for protein kinase C (Pitt & Lee, J. Biomol. Screening, 1: 47-51, 1996). Briefly, each 50-μl assay mixture contained 20 mM Hepes, pH 7.2, 5 mM EGTA, 15 mM MgCl2, 25 mM β-glycerophosphate, 60 μM ATP, 0.25 μCi [γ-^32P]ATP, 0.1% BSA, 500 μ/ml myelin basic protein (UBI #13-104), 2% DMSO, […], and 1 μg/ml of baculoviral GST-MLK1KD. Samples were incubated for 15 min at 37° C. The reaction was stopped by adding ice cold 50% TCA and the proteins were allowed to precipitate for 30 min at 4° C. The plates were then washed with ice cold 25% TCA. Supermix scintillation cocktail was added, and the plates were allowed to equilibrate for 1-2 hours prior to counting using the Wallac MicroBeta 1450 PLUS scintillation counter.

In experiment [2] the target is T2, VEGF receptor (human flk-1, KDR, VEGFR2) kinase domain (Homo sapiens, UniProt P35968).
T2 construct: VEGF receptor (human flk-1, KDR, VEGFR2) kinase domain; made in house
T2 sequence (P35968 834-1162 limits assumed): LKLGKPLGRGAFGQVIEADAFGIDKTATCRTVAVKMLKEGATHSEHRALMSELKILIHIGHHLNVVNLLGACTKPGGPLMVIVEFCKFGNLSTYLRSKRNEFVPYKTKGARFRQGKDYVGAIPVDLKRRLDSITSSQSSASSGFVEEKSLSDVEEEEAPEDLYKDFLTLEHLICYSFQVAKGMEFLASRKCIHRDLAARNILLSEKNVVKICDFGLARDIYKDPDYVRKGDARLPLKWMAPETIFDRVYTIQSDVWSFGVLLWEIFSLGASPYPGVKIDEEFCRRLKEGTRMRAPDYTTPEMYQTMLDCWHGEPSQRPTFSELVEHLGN
Kind of experiment: Inhibition of VEGF receptor kinase activity (ELISA). Conditions: 40 μM ATP; for inhibition at 0.3 µM: 300 nM compound, read-out: VEGFR2 % inh. @ 300 nM; for IC50: values without % sign. The protocol: Fused pyrrolocarbazole compounds were examined for their inhibitory effects on the kinase activity of baculovirus-expressed VEGF receptor (human flk-1, KDR, VEGFR2) kinase domain using the procedure described for the trkA kinase ELISA assay described below. The kinase reaction mixture, consisting of 50 mM Hepes, pH 7.4, 40 μM ATP, 10 mM MnCl2, 0.1% BSA, 2% DMSO, and various concentrations of inhibitor, was transferred to PLC-γ/GST-coated plates. VEGFR kinase was added and the reaction was allowed to proceed for 15 min. at 37° C. Detection of phosphorylated product was accomplished by addition of anti-phosphotyrosine antibody (UBI). A secondary enzyme-conjugated antibody was delivered to capture the antibody-phosphorylated PLC-γ/GST complex. The activity of the bound enzyme was measured via an amplified detection system (Gibco-BRL). Inhibition data were analyzed using the sigmoidal dose-response (variable slope) equation in GraphPad Prism.
Selected isomeric fused pyrrolocarbazole and isoindolone compounds can be tested for their ability to inhibit the kinase activity of baculovirus-expressed human trkA cytoplasmic domain using an ELISA-based assay as previously described (Angeles et al., Anal. Biochem. 236: 49-55, 1996). Briefly, the 96-well microtiter plate is coated with substrate solution (recombinant human phospholipase C-γl/glutathione S-transferase fusion protein (Rotin et al., EMBO J., 11: 559-567, 1992). Inhibition studies are performed in 100 μl assay mixtures containing 50 mM Hepes, pH 7.4, 40 μM ATP, 10 mM MnCl2, 0.1% BSA, 2% DMSO, and various concentrations of inhibitor. The reaction is initiated by addition of trkA kinase and allowed to proceed for 15 minutes at 37° C. An antibody to phosphotyrosine (UBI) is then added, followed by a secondary enzyme-conjugated antibody, alkaline phosphatase-labelled goat anti-mouse IgG (Bio-Rad). The activity of the bound enzyme is measured via an amplified detection system (Gibco-BRL). Inhibition data are analyzed using the sigmoidal dose-response (variable slope) equation in GraphPad Prism.
On the technique in general: In an ELISA, binding on a coated surface is turned into a signal by an enzyme label.

Experiment [3] deals with T3, MLK3 (Homo sapiens, UniProt Q16584).
T3 construct: 2 μg/ml of baculoviral GST-MLK3KD; GST (N); made in house
T3 sequence (Q16584 117-379 limits assumed, species assumed): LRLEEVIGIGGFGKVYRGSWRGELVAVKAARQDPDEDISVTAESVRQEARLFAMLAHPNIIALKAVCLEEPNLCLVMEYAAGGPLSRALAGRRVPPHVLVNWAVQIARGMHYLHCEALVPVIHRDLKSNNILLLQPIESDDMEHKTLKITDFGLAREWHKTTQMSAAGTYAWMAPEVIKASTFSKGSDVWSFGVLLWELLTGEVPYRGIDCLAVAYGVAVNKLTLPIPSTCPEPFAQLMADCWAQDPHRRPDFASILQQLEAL
Kind of experiment: Inhibition of Mixed Lineage Kinase-3 (MLK3) activity. Conditions: 100 μM ATP; for inhibition at 0.1 µM: 100 nM compound; for IC50: values without % sign. On the procedure: The kinase activity of MLK1 was assessed using the Millipore Multiscreen TCA “in-plate” format as described for protein kinase C (Pitt & Lee, J. Biomol. Screening, 1: 47-51, 1996). Briefly, each 50-μl assay mixture contained 20 mM Hepes, pH 7.2, 5 mM EGTA, 15 mM MgCl2, 25 mM β-glycerophosphate, 60 μM ATP, 0.25 μCi [γ-^32P]ATP, 0.1% BSA, 500 μ/ml myelin basic protein (UBI #13-104), 2% DMSO, 1 μM of test compound, and 1 μg/ml of baculoviral GST-MLK1KD. Samples were incubated for 15 min at 37° C. The reaction was stopped by adding ice cold 50% TCA and the proteins were allowed to precipitate for 30 min at 4° C. The plates were then washed with ice cold 25% TCA. Supermix scintillation cocktail was added, and the plates were allowed to equilibrate for 1-2 hours prior to counting using the Wallac MicroBeta 1450 PLUS scintillation counter.
Assays were performed using the Millipore Multiscreen plate format as described for MLK1. Briefly, each 50-μl assay mixture contained 20 mM Hepes, pH 7.2, 5 mM EGTA, 15 mM MgCl2, 25 mM β-glycerophosphate, 100 μM ATP, 0.25 μCi [γ-^32P]ATP, 0.1% BSA, 500 μg/ml myelin basic protein (UBI #13-104), 2% DMSO, various concentrations of test compound, and 2 μg/ml of baculoviral GST-MLK3KD. Sample were incubated for 15 min at 37° C. The reaction was stopped by adding ice cold 50% TCA and the proteins were allowed to precipitate for 30 min at 4° C. The plates were then washed with ice cold 25% TCA. Supermix scintillation cocktail was added, and the plates were allowed to equilibrate for 1-2 hours prior to counting.

`COC(C)c1ccc2[nH]c3c4c(c5c(c3c2c1)CNC5=O)-c1ccccc1C4` (racemic) [Compound 36]: in experiment [1], the IC50 amounted to 26 nM. The inhibition at 0.3 µM in experiment [2] was 12%. In experiment [3], this compound yielded an inhibition at 0.1 µM of 41%.
As for `CCOC(C)c1ccc2c(c1)c1c3c(c4c(c1n2CCCO)Cc1ccccc1-4)C(=O)NC3` (single isomer, unassigned) [Compound 11], the IC50 in experiment [1] stood at 78 nM; in experiment [2] it was 65 nM; in experiment [3], 20 nM.
`CCOCc1ccc2[nH]c3c4c(c5c(c3c2c1)CNC5=O)-c1ccccc1C4C(C)O` (single isomer, unassigned) [Compound 14]: in experiment [1], the inhibition at 0.1 µM amounted to 93%. For the same compound, the results for the IC50 in experiment [2] and in experiment [3] were 72 nM and 9 nM, respectively.
As to `CCOCc1ccc2c(c1)c1c3c(c4c(c1n2CCCO)Cc1ccccc1-4)C(=O)NC3` [Compound 1], the half-maximal inhibitory concentration (IC50) is 21 nM in experiment [1], 4 nM in experiment [2] and 4 nM in experiment [3].
As for `COCc1ccc2c(c1)c1c3c(c4c(c1n2CCCO)Cc1ccccc1-4)C(=O)NC3` [Compound 2], the 50% inhibitory concentration (IC50) in experiment [1] was 15 nM; in experiment [2] it was 17 nM; in experiment [3] it was 8 nM.
Regarding `CC(C)OCc1ccc2c(c1)c1c3c(c4c(c1n2CCCO)Cc1ccccc1-4)C(=O)NC3` [Compound 3], the figures for the 50% inhibitory concentration (IC50) in experiment [1], in experiment [2] and in experiment [3] were 17 nM, 7 nM and 9 nM, respectively.
For `CCC(C)OCc1ccc2c(c1)c1c3c(c4c(c1n2CCCO)Cc1ccccc1-4)C(=O)NC3` (stereo not shown) [Compound 4], the results for the IC50 in experiment [1], in experiment [2] and in experiment [3] were 15 nM, 12 nM and 4 nM, respectively.
The compound `CCOCc1ccc2c(c1)c1c3c(c4c(c1n2CC(C)O)Cc1ccccc1-4)C(=O)NC3` (stereo not shown) [Compound 7] gave an inhibition at 0.1 µM in experiment [1] of 85%. In addition, the IC50 was determined as 25 nM in experiment [2] and 30 nM in experiment [3].
As for `CCCCOCc1ccc2c(c1)c1c3c(c4c(c1n2CCCO)Cc1ccccc1-4)C(=O)NC3` [Compound 9], the 50% inhibitory concentration (IC50) in experiment [1] was found to be 26 nM; in experiment [2], 18 nM; in experiment [3] it was 15 nM.
With `CCOC(C)c1ccc2c(c1)c1c3c(c4c(c1n2CCCO)Cc1ccccc1-4)C(=O)NC3` (stereo not shown) [Compound 10], the 50% inhibitory concentration (IC50) was determined as 37 nM in experiment [1], 83 nM in experiment [2] and 15 nM in experiment [3].
As to `CCCCOC(C)c1ccc2c(c1)c1c3c(c4c(c1n2CCCO)Cc1ccccc1-4)C(=O)NC3` (stereo not shown) [Compound 15], the half-inhibitory concentration (IC50) in experiment [1] turned out to be 41 nM; in experiment [2], 130 nM; in experiment [3], 27 nM.
On to `CC(C)OC(C)c1ccc2c(c1)c1c3c(c4c(c1n2CCCO)Cc1ccccc1-4)C(=O)NC3` (stereo not shown) [Compound 16], for which the inhibition at 0.1 µM in experiment [1] was 66%; in experiment [3] it was 49%. In experiment [2], it took 411 nM to reach half-maximal inhibition (IC50).
On to `CC(C)OCc1ccc2c(c1)c1c3c(c4c(c1n2CCCOC(=O)CN)Cc1ccccc1-4)C(=O)NC3` [Compound 18], for which the 50% inhibitory concentration (IC50) in experiment [1] is 47 nM; in experiment [2] it was 23 nM; in experiment [3] it was 23 nM.
`CC(C)OCc1ccc2c(c1)c1c3c(c4c(c1n2CCCOC(=O)CCCN(C)C)Cc1ccccc1-4)C(=O)NC3` [Compound 21] came in with an inhibition at 0.1 µM in experiment [1] of 40%. In experiment [2], the inhibition at 0.3 µM amounted to 48%.
The compound `CC(C)OCc1ccc2c(c1)c1c3c(c4c(c1n2CCCOC(=O)CCCCCN)Cc1ccccc1-4)C(=O)NC3` [Compound 23] registered an inhibition at 0.1 µM in experiment [1] of 31%. Further, the inhibition at 0.3 µM in experiment [2] came to 57%.
Regarding `CCSCc1ccc2c(c1)c1c3c(c4c(c1n2CCO)Cc1ccccc1-4)C(=O)NC3` [Compound 24], the inhibition at 0.1 µM in experiment [1] came out at 62%; in experiment [3], 55%. For the same compound, the inhibition at 0.3 µM in experiment [2] amounted to 31%.
For `CCSCc1ccc2c(c1)c1c3c(c4c(c1n2CCCO)Cc1ccccc1-4)C(=O)NC3` [Compound 25], the results for the 50% inhibitory concentration (IC50) in experiment [1], in experiment [2] and in experiment [3] were 22 nM, 21 nM and 12 nM, respectively.
Consider `CC(C)SCc1ccc2c(c1)c1c3c(c4c(c1n2CCCO)Cc1ccccc1-4)C(=O)NC3` [Compound 27], for which the results for the half-inhibitory concentration (IC50) in experiment [1] and in experiment [2] were 22 nM and 57 nM, respectively.
For `O=C1NCc2c1c1c(c3c2c2cc(CO)ccc2n3CCO)Cc2ccccc2-1` [Compound 28], the 50% inhibitory concentration (IC50) came to 76 nM in experiment [1] and 74 nM in experiment [3]. The inhibition at 0.3 µM in experiment [2] was 34%.
As for `O=C1NCc2c1c1c(c3[nH]c4ccc(CO)cc4c23)Cc2ccccc2-1` [Compound 30], the IC50 in experiment [1] was 30 nM; in experiment [2], 302 nM.
Consider `CCOCc1ccc2[nH]c3c4c(c5c(c3c2c1)CNC5=O)-c1ccccc1C4` [Compound 31], for which the concentration for half-maximal inhibition (IC50) in experiment [1] was found to be 46 nM; in experiment [2], 77 nM; in experiment [3] it was 29 nM.
For `CC(C)OCc1ccc2[nH]c3c4c(c5c(c3c2c1)CNC5=O)-c1ccccc1C4` [Compound 32], the IC50 in experiment [1] came to 24 nM; in experiment [3], 19 nM. In addition, in experiment [2], the inhibition at 0.3 µM was determined as 33%.
For `CC(O)c1ccc2c(c1)c1c3c(c4c(c1n2CCCO)Cc1ccccc1-4)C(=O)NC3` (stereo not shown) [Compound 33], the IC50 in experiment [1] is 50 nM; in experiment [2], 111 nM; in experiment [3], 16 nM.
Take `CCC(O)c1ccc2c(c1)c1c3c(c4c(c1n2CCCO)Cc1ccccc1-4)C(=O)NC3` (stereo not shown) [Compound 34]: the inhibition at 0.1 µM came out at 45% in experiment [1] and 32% in experiment [3]. Besides, the half-inhibitory concentration (IC50) in experiment [2] was determined as 7 nM.
As for `CC(O)c1ccc2[nH]c3c4c(c5c(c3c2c1)CNC5=O)-c1ccccc1C4` (stereo not shown) [Compound 35], the inhibition at 0.1 µM in experiment [1] worked out at 60%; in experiment [3] it was 62%. Further, the inhibition at 0.3 µM in experiment [2] amounted to 37%.
As to `CCCSCc1ccc2c(c1)c1c3c(c4c(c1n2CCCOC(=O)C(F)(F)F)Cc1ccccc1-4)C(=O)NC3` [Compound 37], it took 17 nM to reach half-maximal inhibition in experiment [1] (IC50). Further, in experiment [2], the inhibition at 0.3 µM was 37%.
In the case of `O=C1NCc2c1c1c(c3c2c2cc(CSc4ccccn4)ccc2n3CCCO)Cc2ccccc2-1` [Compound 38], the inhibition at 0.1 µM in experiment [1] was determined as 58%. In addition, the inhibition at 0.3 µM in experiment [2] turned out to be 45%. For the same compound, the IC50 in experiment [3] was determined as 30 nM.
Turning to `O=C1NCc2c1c1c(c3c2c2cc(CSc4ncccn4)ccc2n3CCCO)Cc2ccccc2-1` [Compound 39], the figures for the inhibition at 0.1 µM in experiment [1] and in experiment [3] were 55% and 56%, respectively. Also, the inhibition at 0.3 µM in experiment [2] amounted to 13%.
On to `COc1ccc2[nH]c3c4c(c5c(c3c2c1)CNC5=O)-c1ccccc1C4` [D, reference compound], for which the 50% inhibitory concentration (IC50) in experiment [1] is 45 nM; in experiment [2], 200 nM. The inhibition at 0.1 µM in experiment [3] stood at 43%.
